Assay [1] has as its system cultured human iPS-derived cardiomyocytes. Briefly: Label-free beat pattern (resonant light intensity imaging) of cultured cardiomyocytes on RWG biosensor. Conditions: Cardiomyocyte, 0.25 h, read-out: IC50, dose-dependent decrease/block of beating (beat rate and amplitude) of cultured cardiomyocytes.
Procedure: Coating of EPIC® resonant waveguide grating (RWG) biosensors. EPIC® 384 well cell culture compatible plates were obtained from Corning, Inc. (Corning, N.Y.). The gelatin-coated EPIC® plates were obtained by incubating the plates with 10 microliter of 20 microgram/mL of freshly prepared gelatin solution in phosphate buffer saline and dried overnight under vacuum. Alternatively or additionally, for example, in experiments with IPS derived cardiomyocytes, the gelatin-coated EPIC® plates were obtained by incubating overnight, uncoated plates with 40 microliters of 0.1% gelatin (Type A) in a solution made with distilled water and autoclaved for 30 minutes to sterilize. The incubated plates were then washed with 40 microliters of sterile water three times immediately before seeding with cardiomyocyte cells.
The test system is the same in assay [2]. Briefly: Dynamic mass redistribution (DMR) assay of cultured cardiomyocytes on RWG biosensor. Format: cell-based. The conditions noted are these: 160 nM. As for the experimental part:
Coating of EPIC® resonant waveguide grating (RWG) biosensors. […] VN is the abbreviation of a vitronectin peptide ([…]). First, a functionalized cell adhesive peptide-copolymer was prepared. […] The mobile phase was trifluoroethanol and potassium trifluoroacetate. […] Standards were prepared using the VN peptide in PBS. Absorbance was read on a BIOTEK® Synergy 4.
First Mode The resonant waveguide grating biosensor is illuminated at a normal incidence angle by a collimated LED (light emitting diode) beam, which passes through a tunable optical filter with a pass band width of 1 nm. The illuminated sensor area was imaged to a high speed CMOS (complementary metal-oxide-semiconductor) camera. Spectral images were acquired synchronously when the tunable filter sweeps through a wavelength range which covers the resonances of the biosensors. The image stack contains sensor spectra in all the pixels, where resonance wavelengths are extracted in a 2D image. Normally in each acquisition, the wavelength sweep is from 825 nm to 840 nm, or 820 nm to 835 nm for a duration of 3 seconds, and 150 frames of images were acquired during the wavelength scan. For typical long-term DMR assays, the update rate was from 15 seconds to minutes, with multiple scans averaged into a single data point. […]

Each structure is given as a SMILES string.

The record followed here is US10203320B2, “Label free method for assessing chemical cardiotoxicity” (Corning Incorporated, priority 2012, dated 2019).

Consider `COC(=O)C1=C(C)NC(C)=C(C(=O)OC(C)C)C1c1cccc2nonc12` (stereo not shown) [isradipine], for which, in assay [1], the IC50 was roughly 0.1 µM.

In the case of `COc1cc(N)c(Cl)cc1C(=O)NC1CCN(CCCOc2ccc(F)cc2)CC1OC` (stereo not shown) [cisapride, cisapride monohydrate], in assay [1], the IC50 is roughly 0.16 µM.

Consider `CC(C)NC[C@H](O)c1ccc(O)c(O)c1` [isoprotenerol, (−)-Isoproterenol], for which, in assay [2] (compared to negative control (assay vehicle), 37° C., FIG. 3), the “DMR signal of cultured cardiomyocytes in response to stimulation” value is listed as “more sustained DMR signal”. Also, the “oscillation pattern of the DMR signal after stimulation” value in assay [2] (compared to the baseline and the DMR induced by the assay buffer) is reported as “became smaller but with higher frequency”.
